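A five-concentration, 48-hour dose response in 96-well plates underlies each endpoint, interpolated linearly between surrounding concentrations. At the GI50, growth is halved.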 Activity calls are given as the source filed them. No stated cut-off is given here; in the data, active = GI50 up to about 1.1 µM and inactive = higher.
Legend:
Assay in all cases: DTP human tumour cell line panel, 48 h
NCI-H460 = tested on: NCI-H460
CAKI-1 = tested on: CAKI-1
Hs-578T = tested on: Hs-578T
MDA-MB-435 = tested on: MDA-MB-435
Malme-3M = tested on: Malme-3M
786-0 = tested on: 786-0
HOP-92 = tested on: HOP-92
UO-31 = tested on: UO-31
U-251 = tested on: U-251
HCC 2998 = tested on: HCC 2998
MDA-N = tested on: MDA-N
NCI/ADR-RES = tested on: NCI/ADR-RES
MDA-MB-231 = tested on: MDA-MB-231
SR = tested on: SR
SK-MEL-5 = tested on: SK-MEL-5
OVCAR-8 = tested on: OVCAR-8
NCI-H522 = tested on: NCI-H522
CCRF-CEM = tested on: CCRF-CEM
LOX IMVI = tested on: LOX IMVI
ACHN = tested on: ACHN
IGROV-1 = tested on: IGROV-1
OVCAR-5 = tested on: OVCAR-5
HCT-116 = tested on: HCT-116
SW-620 = tested on: SW-620
PC-3 = tested on: PC-3
T47D = tested on: T47D
SK-MEL-2 = tested on: SK-MEL-2
SF-268 = tested on: SF-268
SN12C = tested on: SN12C
M14 = tested on: M14
HOP-62 = tested on: HOP-62
OVCAR-3 = tested on: OVCAR-3
UACC-257 = tested on: UACC-257
MOLT-4 = tested on: MOLT-4
SK-MEL-28 = tested on: SK-MEL-28
NCI-H23 = tested on: NCI-H23
HL-60 = tested on: HL-60
SF-539 = tested on: SF-539
BT-549 = tested on: BT-549
HT-29 = tested on: HT-29
EKVX = tested on: EKVX
HCT-15 = tested on: HCT-15
SF-295 = tested on: SF-295
SNB-75 = tested on: SNB-75
TK-10 = tested on: TK-10
DU-145 = tested on: DU-145
A498 = tested on: A498
UACC-62 = tested on: UACC-62
RPMI-8226 = tested on: RPMI-8226
OVCAR-4 = tested on: OVCAR-4
SNB-19 = tested on: SNB-19
A549 = tested on: A549
KM12 = tested on: KM12
MCF7 = tested on: MCF7
COLO 205 = tested on: COLO 205
SK-OV-3 = tested on: SK-OV-3
NCI-H226 = tested on: NCI-H226
K562 = tested on: K562
RXF 393 = tested on: RXF 393

For C=CCOc1ccc(C2c3c(n[nH]c3O)CC(C)(O)C2C(=O)OC)cc1OC (configuration not stated), the GI50 (NCI-H460) was > 100 µM (inactive), the GI50 (CAKI-1) was > 100 µM (inactive) and the GI50 (Hs-578T) was > 100 µM (inactive). The GI50 (MDA-MB-435) was > 100 µM (inactive), the GI50 (Malme-3M) was > 100 µM (inactive) and the GI50 (786-0) was > 100 µM (inactive). For the same compound, the GI50 (HOP-92) was > 100 µM (inactive), the GI50 (UO-31) was > 100 µM (inactive) and the GI50 (U-251) was > 100 µM (inactive). For the same compound, the GI50 (HCC 2998) was > 100 µM (inactive), the GI50 (MDA-N) was > 100 µM (inactive) and the GI50 (NCI/ADR-RES) was > 100 µM (inactive). The GI50 (MDA-MB-231) was > 100 µM (inactive), the GI50 (SR) was > 100 µM (inactive) and the GI50 (SK-MEL-5) was > 100 µM (inactive). The GI50 (OVCAR-8) was > 100 µM (inactive), the GI50 (NCI-H522) was > 100 µM (inactive) and the GI50 (CCRF-CEM) was > 100 µM (inactive). For the same compound, the GI50 (LOX IMVI) was > 100 µM (inactive), the GI50 (ACHN) was > 100 µM (inactive) and the GI50 (IGROV-1) was > 100 µM (inactive). The GI50 (OVCAR-5) was > 100 µM (inactive), the GI50 (HCT-116) was > 100 µM (inactive) and the GI50 (SW-620) was > 100 µM (inactive). For the same compound, the GI50 (PC-3) was > 100 µM (inactive), the GI50 (T47D) was > 100 µM (inactive) and the GI50 (SK-MEL-2) was > 100 µM (inactive). The GI50 (SF-268) was > 100 µM (inactive), the GI50 (SN12C) was > 100 µM (inactive) and the GI50 (M14) was > 100 µM (inactive). For the same compound, the GI50 (HOP-62) was > 100 µM (inactive), the GI50 (OVCAR-3) was > 100 µM (inactive) and the GI50 (UACC-257) was > 100 µM (inactive). The GI50 (MOLT-4) was > 100 µM (inactive), the GI50 (SK-MEL-28) was > 100 µM (inactive) and the GI50 (NCI-H23) was > 100 µM (inactive). The GI50 (HL-60) was > 100 µM (inactive), the GI50 (SF-539) was > 100 µM (inactive) and the GI50 (BT-549) was > 100 µM (inactive). For the same compound, the GI50 (HT-29) was > 100 µM (inactive), the GI50 (EKVX) was > 100 µM (inactive) and the GI50 (HCT-15) was over 100 µM. For the same compound, the GI50 (SF-295) was > 100 µM (inactive), the GI50 (SNB-75) was > 100 µM (inactive) and the GI50 (TK-10) was > 100 µM (inactive). The GI50 (DU-145) was > 100 µM (inactive), the GI50 (A498) was > 100 µM (inactive) and the GI50 (UACC-62) was > 100 µM (inactive). For the same compound, the GI50 (RPMI-8226) was > 100 µM (inactive), the GI50 (OVCAR-4) was > 100 µM (inactive) and the GI50 (SNB-19) was > 100 µM (inactive). For the same compound, the GI50 (A549) was > 100 µM (inactive), the GI50 (KM12) was > 100 µM (inactive) and the GI50 (MCF7) was > 100 µM (inactive). The GI50 (COLO 205) was > 100 µM (inactive).

In the case of CC(C)(C)[Si](C)(C)O[C@@H](C(=O)OC1C=CCCC1)[C@@H](NC(=O)c1ccccc1)c1ccccc1 (some centres not stated), the GI50 (SK-OV-3) is reported as 84.1 µM (inactive), the GI50 (NCI-H460) is reported as 19.9 µM (inactive) and the GI50 (CAKI-1) is reported as 48.6 µM (inactive). The GI50 (Hs-578T) was 53.6 µM (inactive), the GI50 (MDA-MB-435) was 29.3 µM (inactive) and the GI50 (Malme-3M) was 40.3 µM (inactive). The GI50 (NCI-H226) was 37.8 µM (inactive), the GI50 (786-0) was 23.8 µM (inactive) and the GI50 (HOP-92) was 8.99 µM (inactive). For the same compound, the GI50 (UO-31) was 27.7 µM (inactive), the GI50 (U-251) was 18.2 µM (inactive) and the GI50 (HCC 2998) was 14.1 µM (inactive). The GI50 (MDA-N) was 31 µM (inactive), the GI50 (NCI/ADR-RES) was 28.6 µM (inactive) and the GI50 (MDA-MB-231) was 19.1 µM (inactive). For the same compound, the GI50 (SR) was 15.1 µM (inactive), the GI50 (SK-MEL-5) was 16.8 µM (inactive) and the GI50 (OVCAR-8) was 56.4 µM (inactive). The GI50 (NCI-H522) was 16.6 µM (inactive), the GI50 (CCRF-CEM) was 12.1 µM (inactive) and the GI50 (LOX IMVI) was 16.7 µM (inactive). For the same compound, the GI50 (ACHN) was 19.1 µM (inactive), the GI50 (IGROV-1) was 37.3 µM (inactive) and the GI50 (OVCAR-5) was 24.4 µM (inactive). The GI50 (HCT-116) was 12.6 µM (inactive), the GI50 (SW-620) was 26.2 µM (inactive) and the GI50 (PC-3) was 9.1 µM (inactive). The GI50 (T47D) was 20 µM (inactive), the GI50 (SK-MEL-2) was 18 µM (inactive) and the GI50 (SF-268) was 69.5 µM (inactive). For the same compound, the GI50 (SN12C) was 21 µM (inactive), the GI50 (HOP-62) was 18.4 µM (inactive) and the GI50 (OVCAR-3) was 16.1 µM (inactive). The GI50 (UACC-257) was 19.7 µM (inactive), the GI50 (MOLT-4) was 14.7 µM (inactive) and the GI50 (SK-MEL-28) was 34 µM (inactive). For the same compound, the GI50 (NCI-H23) was 29 µM (inactive), the GI50 (SF-539) was 61.1 µM (inactive) and the GI50 (BT-549) was 51.1 µM (inactive). The GI50 (HT-29) was 14.3 µM (inactive), the GI50 (EKVX) was 31.7 µM (inactive) and the GI50 (HCT-15) was 20 µM. The GI50 (SF-295) was 18.9 µM (inactive), the GI50 (SNB-75) was 27.7 µM (inactive) and the GI50 (TK-10) was 16.5 µM (inactive). For the same compound, the GI50 (DU-145) was 50.4 µM (inactive), the GI50 (A498) was 35.6 µM (inactive) and the GI50 (UACC-62) was 26.8 µM (inactive). For the same compound, the GI50 (RPMI-8226) was 4.79 µM (inactive), the GI50 (OVCAR-4) was 21.5 µM (inactive) and the GI50 (SNB-19) was 28.8 µM (inactive). The GI50 (K562) was 14 µM (inactive), the GI50 (A549) was 17.6 µM (inactive) and the GI50 (KM12) was 25.6 µM (inactive). The GI50 (MCF7) was 14.8 µM (inactive), the GI50 (COLO 205) was 25.3 µM (inactive) and the GI50 (RXF 393) was 3.68 µM (inactive).

O=[N+]([O-])c1ccc(/N=N/N2CCCC2)cc1 was tested, and the GI50 (SK-OV-3) was > 100 µM (inactive), the GI50 (NCI-H460) was > 100 µM (inactive) and the GI50 (CAKI-1) was > 100 µM (inactive). For the same compound, the GI50 (Hs-578T) was > 100 µM (inactive), the GI50 (MDA-MB-435) was > 100 µM (inactive) and the GI50 (NCI-H226) was > 100 µM (inactive). The GI50 (786-0) was > 100 µM (inactive), the GI50 (HOP-92) was > 100 µM (inactive) and the GI50 (UO-31) was > 100 µM (inactive). The GI50 (U-251) was > 100 µM (inactive), the GI50 (HCC 2998) was 4.38 µM (inactive) and the GI50 (MDA-N) was > 100 µM (inactive). The GI50 (NCI/ADR-RES) was > 100 µM (inactive), the GI50 (MDA-MB-231) was > 100 µM (inactive) and the GI50 (SR) was 79.4 µM (inactive). The GI50 (SK-MEL-5) was > 100 µM (inactive), the GI50 (OVCAR-8) was > 100 µM (inactive) and the GI50 (NCI-H522) was > 100 µM (inactive). The GI50 (CCRF-CEM) was > 100 µM (inactive), the GI50 (LOX IMVI) was > 100 µM (inactive) and the GI50 (ACHN) was > 100 µM (inactive). The GI50 (IGROV-1) was > 100 µM (inactive), the GI50 (OVCAR-5) was > 100 µM (inactive) and the GI50 (HCT-116) was > 100 µM (inactive). For the same compound, the GI50 (SW-620) was > 100 µM (inactive), the GI50 (PC-3) was > 100 µM (inactive) and the GI50 (T47D) was > 100 µM (inactive). For the same compound, the GI50 (SK-MEL-2) was > 100 µM (inactive), the GI50 (SF-268) was > 100 µM (inactive) and the GI50 (SN12C) was > 100 µM (inactive). The GI50 (M14) was > 100 µM (inactive), the GI50 (HOP-62) was > 100 µM (inactive) and the GI50 (OVCAR-3) was > 100 µM (inactive). The GI50 (UACC-257) was > 100 µM (inactive), the GI50 (MOLT-4) was > 100 µM (inactive) and the GI50 (NCI-H23) was > 100 µM (inactive). For the same compound, the GI50 (HL-60) was 32.2 µM (inactive), the GI50 (SF-539) was > 100 µM (inactive) and the GI50 (BT-549) was > 100 µM (inactive). For the same compound, the GI50 (EKVX) was > 100 µM (inactive), the GI50 (HCT-15) was over 100 µM and the GI50 (SF-295) was > 100 µM (inactive). For the same compound, the GI50 (SNB-75) was > 100 µM (inactive), the GI50 (TK-10) was > 100 µM (inactive) and the GI50 (DU-145) was > 100 µM (inactive). For the same compound, the GI50 (A498) was > 100 µM (inactive), the GI50 (UACC-62) was > 100 µM (inactive) and the GI50 (RPMI-8226) was > 100 µM (inactive). For the same compound, the GI50 (OVCAR-4) was > 100 µM (inactive), the GI50 (SNB-19) was > 100 µM (inactive) and the GI50 (K562) was > 100 µM (inactive). The GI50 (KM12) was > 100 µM (inactive), the GI50 (MCF7) was > 100 µM (inactive) and the GI50 (COLO 205) was > 100 µM (inactive). For the same compound, the GI50 (RXF 393) was > 100 µM (inactive).
